ChEMBL document CHEMBL2062480, “Semi-synthesis and anti-tumor evaluation of novel 25-hydroxyprotopanaxadiol derivatives” (Eur J Med Chem, 2012)

Experiments:
[1] = test system: MCF7; assay: Antiproliferative activity against human MCF7 cells after 48 hrs by MTT assay; assay type: functional, cell-based; conditions: for IC50: MCF7, 48 h
[2] = test system: A549; assay: Antiproliferative activity against human A549 cells after 48 hrs by MTT assay; assay type: functional, cell-based; conditions: A549, 48 h
[3] = test system: LoVo; assay: Antiproliferative activity against human LoVo cells after 48 hrs by MTT assay; assay type: functional, cell-based
[4] = Antiproliferative activity against human IOSE-144 cells after 48 hrs by MTT assay; assay type: cell-based; conditions: IOSE-144, 48 h
[5] = test system: MCF7; assay: Antiproliferative activity against human MCF7 cells assessed as cell viability at 30 uM after 48 hrs by MTT assay; assay type: functional; conditions: MCF7, 48 h, read-out: Activity

Row | SMILES | IC50 [1] | IC50 [2] | IC50 [3] | IC50 [4] | viability at 30 µM [5] | Activity [1]
1 | CCCCCCCCCC(=O)O[C@H]1CC[C@]2(C)[C@H]3C[C@@H](O)[C@@H]4[C@@H]([C@](C)(O)CCCC(C)(C)O)CC[C@@]4(C)[C@]3(C)CC[C@H]2C1(C)C | > 100 µM | > 100 µM | > 50 µM | > 100 µM |  | 
2 | CCCC(=O)O[C@@H]1C[C@@H]2[C@@]3(C)CC[C@H](O)C(C)(C)[C@@H]3CC[C@@]2(C)[C@]2(C)CC[C@H]([C@](C)(O)CCCC(C)(C)O)[C@@H]12 | 32.8 µM | 25.5 µM | 38.3 µM | > 100 µM | 28.5% | 
3 | CCCCC(=O)O[C@H]1CC[C@]2(C)[C@H]3C[C@@H](OC(=O)CCCC)[C@@H]4[C@@H]([C@](C)(O)CCCC(C)(C)O)CC[C@@]4(C)[C@]3(C)CC[C@H]2C1(C)C | > 50 µM | 49.9 µM | > 50 µM | > 100 µM |  | 
4 | CCCCCCCC/C=C\CCCCCCCC(=O)O[C@H]1CC[C@]2(C)[C@H]3C[C@@H](O)[C@@H]4[C@@H]([C@](C)(O)CCCC(C)(C)O)CC[C@@]4(C)[C@]3(C)CC[C@H]2C1(C)C | > 100 µM | > 100 µM | > 100 µM | > 100 µM |  | 
5 | CCCCCCCCCC(=O)O[C@@H]1C[C@@H]2[C@@]3(C)CC[C@H](O)C(C)(C)[C@@H]3CC[C@@]2(C)[C@]2(C)CC[C@H]([C@](C)(O)CCCC(C)(C)O)[C@@H]12 | 26.2 µM | 29.6 µM | > 50 µM | > 100 µM |  | 
6 | CCCCCCCCCCCCCCCC(=O)O[C@@H]1C[C@@H]2[C@@]3(C)CC[C@H](O)C(C)(C)[C@@H]3CC[C@@]2(C)[C@]2(C)CC[C@H]([C@](C)(O)CCCC(C)(C)O)[C@@H]12 | > 50 µM | > 50 µM | > 100 µM | > 100 µM |  | 
7 | CCC(=O)O[C@@H]1C[C@@H]2[C@@]3(C)CC[C@H](O)C(C)(C)[C@@H]3CC[C@@]2(C)[C@]2(C)CC[C@H]([C@](C)(O)CCCC(C)(C)O)[C@@H]12 | 10.4 µM | 17.7 µM | 40.3 µM | > 100 µM | 17.1% | 
8 | CC(=O)O[C@H]1CC[C@]2(C)[C@H]3C[C@@H](OC(C)=O)[C@@H]4[C@@H]([C@](C)(O)CCCC(C)(C)O)CC[C@@]4(C)[C@]3(C)CC[C@H]2C1(C)C | 25.3 µM | 14.8 µM | 43.4 µM | > 100 µM |  | 
9 | CCCCCCCCCCCCCC(=O)O[C@@H]1C[C@@H]2[C@@]3(C)CC[C@H](O)C(C)(C)[C@@H]3CC[C@@]2(C)[C@]2(C)CC[C@H]([C@](C)(O)CCCC(C)(C)O)[C@@H]12 | > 100 µM | > 100 µM | > 100 µM | > 100 µM |  | 
10 | CCCCCCCCCCCC(=O)O[C@@H]1C[C@@H]2[C@@]3(C)CC[C@H](O)C(C)(C)[C@@H]3CC[C@@]2(C)[C@]2(C)CC[C@H]([C@](C)(O)CCCC(C)(C)O)[C@@H]12 | > 100 µM | > 100 µM | > 50 µM | > 100 µM |  | 
11 | CCCCCCC(=O)O[C@H]1CC[C@]2(C)[C@H]3C[C@@H](O)[C@@H]4[C@@H]([C@](C)(O)CCCC(C)(C)O)CC[C@@]4(C)[C@]3(C)CC[C@H]2C1(C)C | 33.7 µM | 16.8 µM | > 50 µM | > 100 µM |  | 
12 | CC(C)(O)CCC[C@@](C)(O)[C@H]1CC[C@]2(C)[C@@H]1[C@H](O)C[C@@H]1[C@@]3(C)CC[C@H](O)C(C)(C)[C@@H]3CC[C@]12C | 48.9 µM | 34.2 µM | 45.2 µM | > 100 µM | 66.3% | 
13 | O=c1[nH]cc(F)c(=O)[nH]1 [FLUOROURACIL] | 16.2 µM | 12.8 µM | 3.3 µM | 25.6 µM | 42.5% | 
14 | CCCCCCCCCCCCCCCC(=O)O[C@H]1CC[C@]2(C)[C@H]3C[C@@H](O)[C@@H]4[C@@H]([C@](C)(O)CCCC(C)(C)O)CC[C@@]4(C)[C@]3(C)CC[C@H]2C1(C)C | > 100 µM | > 100 µM | > 100 µM | > 100 µM |  | 
15 | CCCCCCCCCCCCCCCCCC(=O)O[C@H]1CC[C@]2(C)[C@H]3C[C@@H](O)[C@@H]4[C@@H]([C@](C)(O)CCCC(C)(C)O)CC[C@@]4(C)[C@]3(C)CC[C@H]2C1(C)C | > 100 µM | > 100 µM | > 100 µM | > 100 µM |  | 
16 | CCCCCCCCCCCCCCCCCC(=O)O[C@@H]1C[C@@H]2[C@@]3(C)CC[C@H](O)C(C)(C)[C@@H]3CC[C@@]2(C)[C@]2(C)CC[C@H]([C@](C)(O)CCCC(C)(C)O)[C@@H]12 | > 100 µM | > 100 µM | > 100 µM | > 100 µM |  | 

Row | SMILES | IC50 [1] | IC50 [2] | IC50 [3] | IC50 [4] | viability at 30 µM [5] | Activity [1]
17 | CC(=O)O[C@H]1CC[C@]2(C)[C@H]3C[C@@H](O)[C@@H]4[C@@H]([C@](C)(O)CCCC(C)(C)O)CC[C@@]4(C)[C@]3(C)CC[C@H]2C1(C)C | 15.2 µM | 15.7 µM | > 50 µM | > 100 µM |  | Dose-dependent effect
18 | CCCC(=O)O[C@H]1CC[C@]2(C)[C@H]3C[C@@H](O)[C@@H]4[C@@H]([C@](C)(O)CCCC(C)(C)O)CC[C@@]4(C)[C@]3(C)CC[C@H]2C1(C)C | 42.8 µM | 35.5 µM | > 50 µM | > 100 µM |  | 
19 | CCCCCCC(=O)O[C@@H]1C[C@@H]2[C@@]3(C)CC[C@H](O)C(C)(C)[C@@H]3CC[C@@]2(C)[C@]2(C)CC[C@H]([C@](C)(O)CCCC(C)(C)O)[C@@H]12 | 16.3 µM | 16.5 µM | 48.1 µM | > 100 µM |  | 
20 | CCCCCCCC(=O)O[C@H]1CC[C@]2(C)[C@H]3C[C@@H](O)[C@@H]4[C@@H]([C@](C)(O)CCCC(C)(C)O)CC[C@@]4(C)[C@]3(C)CC[C@H]2C1(C)C | > 100 µM | 46.7 µM | > 50 µM | > 100 µM |  | 
21 | CC(C)(O)CCC[C@@](C)(O)[C@H]1CC[C@]2(C)[C@@H]1[C@H](O)C[C@@H]1[C@@]3(C)CC[C@H](OC=O)C(C)(C)[C@@H]3CC[C@]12C | 11.5 µM | 39.2 µM | > 50 µM | > 100 µM |  | Dose-dependent effect
22 | CCCCC(=O)O[C@H]1CC[C@]2(C)[C@H]3C[C@@H](O)[C@@H]4[C@@H]([C@](C)(O)CCCC(C)(C)O)CC[C@@]4(C)[C@]3(C)CC[C@H]2C1(C)C | > 50 µM | > 50 µM | > 50 µM | > 100 µM |  | 
23 | CCC(=O)O[C@H]1CC[C@]2(C)[C@H]3C[C@@H](O)[C@@H]4[C@@H]([C@](C)(O)CCCC(C)(C)O)CC[C@@]4(C)[C@]3(C)CC[C@H]2C1(C)C | 12.5 µM | 43.6 µM | > 50 µM | > 100 µM |  | Dose-dependent effect
24 | CCC(=O)O[C@H]1CC[C@]2(C)[C@H]3C[C@@H](OC(=O)CC)[C@@H]4[C@@H]([C@](C)(O)CCCC(C)(C)O)CC[C@@]4(C)[C@]3(C)CC[C@H]2C1(C)C | 20.6 µM | 14.9 µM | 45.3 µM | > 100 µM |  | 
25 | CCCCCCCCC(=O)O[C@H]1CC[C@]2(C)[C@H]3C[C@@H](O)[C@@H]4[C@@H]([C@](C)(O)CCCC(C)(C)O)CC[C@@]4(C)[C@]3(C)CC[C@H]2C1(C)C | > 50 µM | > 50 µM | > 50 µM | > 100 µM |  | 
26 | CCCCCC(=O)O[C@H]1CC[C@]2(C)[C@H]3C[C@@H](O)[C@@H]4[C@@H]([C@](C)(O)CCCC(C)(C)O)CC[C@@]4(C)[C@]3(C)CC[C@H]2C1(C)C | > 50 µM | 26.2 µM | > 50 µM | > 100 µM |  | 
27 | CC(C)(O)CCC[C@@](C)(O)[C@H]1CC[C@]2(C)[C@@H]1[C@H](OC=O)C[C@@H]1[C@@]3(C)CC[C@H](OC=O)C(C)(C)[C@@H]3CC[C@]12C | 1.1 µM | 12.5 µM | 49.5 µM | > 100 µM | 10.6% | 
28 | CCCCCCCC/C=C\CCCCCCCC(=O)O[C@@H]1C[C@@H]2[C@@]3(C)CC[C@H](O)C(C)(C)[C@@H]3CC[C@@]2(C)[C@]2(C)CC[C@H]([C@](C)(O)CCCC(C)(C)O)[C@@H]12 | > 100 µM | > 100 µM | > 100 µM | > 100 µM |  | 
29 | CCCCCCCCCCCCCC(=O)O[C@H]1CC[C@]2(C)[C@H]3C[C@@H](O)[C@@H]4[C@@H]([C@](C)(O)CCCC(C)(C)O)CC[C@@]4(C)[C@]3(C)CC[C@H]2C1(C)C | > 100 µM | > 100 µM | > 100 µM | > 100 µM |  | 
30 | CC(=O)O[C@@H]1C[C@@H]2[C@@]3(C)CC[C@H](O)C(C)(C)[C@@H]3CC[C@@]2(C)[C@]2(C)CC[C@H]([C@](C)(O)CCCC(C)(C)O)[C@@H]12 | 15.1 µM | 10.4 µM | 37.5 µM | > 100 µM | 13.2% | 
31 | CCCCCCCCCCCC(=O)O[C@H]1CC[C@]2(C)[C@H]3C[C@@H](O)[C@@H]4[C@@H]([C@](C)(O)CCCC(C)(C)O)CC[C@@]4(C)[C@]3(C)CC[C@H]2C1(C)C | > 100 µM | > 100 µM | > 100 µM | > 100 µM |  | 
32 | CC(C)(O)CCC[C@@](C)(O)[C@H]1CC[C@]2(C)[C@@H]1[C@H](OC=O)C[C@@H]1[C@@]3(C)CC[C@H](O)C(C)(C)[C@@H]3CC[C@]12C | 11.6 µM | 15.9 µM | 49.6 µM | > 100 µM | 15.1% | 
